Experimental data from PMC5529018, “Discovery of novel brain permeable and G protein-biased beta-1 adrenergic receptor partial agonists for the treatment of neurocognitive disorders” (PLoS ONE, 2017).

What was measured:
[1] = biological target: ADR - Alpha 2B (Homo sapiens, UniProt P18089); experiment: Radioligand binding ADR Alpha 2B; conditions: S2 Table; hot ligand [3H] Rauwolscine; read-out: Binding Affinity Ki
[2] = biological target: D3 dopamine receptor (Homo sapiens, UniProt P35462); experiment: Radioligand binding D3; conditions: S2 Table; hot ligand [3H]N-Methylspiperone; read-out: Binding Affinity Ki
[3] = biological target: ADR - Alpha 2A (Homo sapiens, UniProt P08913); experiment: Radioligand binding ADR Alpha 2A; conditions: S2 Table; hot ligand [3H] Rauwolscine; read-out: Binding Affinity Ki
[4] = biological target: ADR - Alpha 2C (Homo sapiens, UniProt P18825); experiment: Radioligand binding ADR Alpha 2C; conditions: S2 Table; hot ligand [3H] Rauwolscine; read-out: Binding Affinity Ki
[5] = biological target: 5-HT6 (Homo sapiens, UniProt P50406); experiment: Radioligand binding 5-HT6; conditions: S2 Table; hot ligand [3H]LSD; read-out: Binding Affinity Ki
[6] = biological target: 5-HT 1D (Homo sapiens, UniProt P28221); experiment: Radioligand binding 5-HT 1D; conditions: S2 Table; hot ligand [3H]GR125743; read-out: Binding Affinity Ki
[7] = biological target: 5-HT1B (Homo sapiens, UniProt P28222); experiment: Radioligand binding 5-HT1B; conditions: S2 Table; hot ligand [3H]GR125743; read-out: Binding Affinity Ki
[8] = Pharmacokinetic study 2, 20-min post-dose collection; type: in vivo, Sprague-Dawley rats; conditions: Sprague-Dawley, brain, rat, single administration
From the text: Two cohorts of Sprague-Dawley rats were used in two independent studies. All animals were fasted overnight before the experiment with free access to water. In study 1, a total of 18 rats were used for a 4 hr time course pharmacokinetic (PK) study. Rats were anesthetized with 3% isoflurane and catheters were implanted into the jugular and/or portal veins for compound administration and/or blood sampling at 1 to 2 days prior to the experiments as previously described. […] Four hours post-dose, rats were deeply anesthetized with isoflurane and blood samples were collected by cardiac puncture. In study 2, a total of 18 rats were used for a 20 min post-dose collection study. […] At 20 min post-dose, rats were deeply anesthetized with isoflurane and blood samples were collected by cardiac puncture. Brains were collected after perfusion with phosphate buffered saline. All plasma samples were immediately separated after collection by centrifugation (11,000 rpm for 3 minutes) and stored at −80°C until analysis. […] Tulobuterol was used as the internal standard. The flow rate was set to 0.45 ml/min. Column temperature was 25°C. […] The injection volume was 20 μl. The mass spectrometer was operated in the positive mode with multiple-reaction monitoring (MRM). […] Mobile phase A consisted of 10 mM ammonium acetate and 0.1% formic acid in LCMS grade water. Mobile phase B consisted of 10 mM ammonium acetate and 0.1% formic acid in LCMS grade acetonitrile:water 90:10% (v/v). […] Five μl of the extracted samples were injected. […] Data acquisition and analysis were performed using the Analyst 1.6.1 software (AB SCIEX, CA).

[9] = Microsomal stability assay, mouse; type: in vitro ADME; conditions: 0.1 uM
[10] = biological target: 5-HT 1A (Homo sapiens, UniProt P08908); experiment: Radioligand binding 5-HT 1A; conditions: S2 Table; hot ligand [3H]8-OH-DPAT; read-out: Binding Affinity Ki
[11] = biological target: ADR- Alpha 1A (Homo sapiens, UniProt P35348); experiment: Radioligand binding ADR Alpha 1A; conditions: S2 Table; hot ligand [3H] Prazosin; read-out: Binding Affinity Ki
Chain of ADR- Alpha 1A (P35348 whole entry): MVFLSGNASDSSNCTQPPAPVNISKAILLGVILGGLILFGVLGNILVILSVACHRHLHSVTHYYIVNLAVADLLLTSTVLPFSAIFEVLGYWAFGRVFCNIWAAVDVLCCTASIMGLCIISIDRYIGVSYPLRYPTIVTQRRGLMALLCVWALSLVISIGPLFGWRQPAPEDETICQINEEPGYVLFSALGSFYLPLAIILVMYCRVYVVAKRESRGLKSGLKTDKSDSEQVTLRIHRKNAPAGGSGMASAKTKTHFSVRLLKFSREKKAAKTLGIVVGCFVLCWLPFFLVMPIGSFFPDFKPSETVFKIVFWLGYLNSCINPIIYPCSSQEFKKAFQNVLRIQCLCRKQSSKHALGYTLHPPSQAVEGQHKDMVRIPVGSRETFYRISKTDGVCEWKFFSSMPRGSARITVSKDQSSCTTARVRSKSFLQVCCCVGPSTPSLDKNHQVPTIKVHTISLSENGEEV

Chain of 5-HT 1D (P28221 whole entry, species assumed): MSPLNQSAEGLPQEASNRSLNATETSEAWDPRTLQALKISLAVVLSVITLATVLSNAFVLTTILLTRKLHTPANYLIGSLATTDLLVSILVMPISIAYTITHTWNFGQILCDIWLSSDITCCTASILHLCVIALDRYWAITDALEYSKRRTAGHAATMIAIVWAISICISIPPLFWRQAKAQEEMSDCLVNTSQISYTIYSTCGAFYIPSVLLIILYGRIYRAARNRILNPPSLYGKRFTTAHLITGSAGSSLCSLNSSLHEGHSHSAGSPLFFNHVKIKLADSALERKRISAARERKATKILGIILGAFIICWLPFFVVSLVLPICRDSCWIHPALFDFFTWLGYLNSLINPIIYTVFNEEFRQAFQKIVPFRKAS
Chain of D3 dopamine receptor (P35462 whole entry): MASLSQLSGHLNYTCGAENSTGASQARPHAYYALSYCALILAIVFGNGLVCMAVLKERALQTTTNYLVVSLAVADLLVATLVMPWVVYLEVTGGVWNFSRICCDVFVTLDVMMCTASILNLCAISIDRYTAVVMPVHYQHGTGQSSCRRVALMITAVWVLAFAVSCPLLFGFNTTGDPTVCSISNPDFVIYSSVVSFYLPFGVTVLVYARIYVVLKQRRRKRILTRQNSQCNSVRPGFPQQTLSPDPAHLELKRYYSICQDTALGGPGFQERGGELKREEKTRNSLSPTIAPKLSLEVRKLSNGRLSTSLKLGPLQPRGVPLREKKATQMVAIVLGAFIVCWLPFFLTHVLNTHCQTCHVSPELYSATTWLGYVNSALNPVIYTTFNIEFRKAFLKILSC
Chain of 5-HT1B (P28222 whole entry, species assumed): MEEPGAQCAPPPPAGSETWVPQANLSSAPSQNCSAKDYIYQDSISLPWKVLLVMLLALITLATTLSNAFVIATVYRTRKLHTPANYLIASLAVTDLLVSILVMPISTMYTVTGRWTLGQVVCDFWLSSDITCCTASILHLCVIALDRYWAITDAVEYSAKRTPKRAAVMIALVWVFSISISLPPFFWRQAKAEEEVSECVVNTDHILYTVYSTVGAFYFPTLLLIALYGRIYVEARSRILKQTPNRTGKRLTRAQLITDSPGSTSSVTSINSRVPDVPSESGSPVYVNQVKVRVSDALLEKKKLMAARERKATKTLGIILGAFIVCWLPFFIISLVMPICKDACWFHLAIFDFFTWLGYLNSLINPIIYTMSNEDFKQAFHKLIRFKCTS
Chain of ADR - Alpha 2A (P08913 whole entry): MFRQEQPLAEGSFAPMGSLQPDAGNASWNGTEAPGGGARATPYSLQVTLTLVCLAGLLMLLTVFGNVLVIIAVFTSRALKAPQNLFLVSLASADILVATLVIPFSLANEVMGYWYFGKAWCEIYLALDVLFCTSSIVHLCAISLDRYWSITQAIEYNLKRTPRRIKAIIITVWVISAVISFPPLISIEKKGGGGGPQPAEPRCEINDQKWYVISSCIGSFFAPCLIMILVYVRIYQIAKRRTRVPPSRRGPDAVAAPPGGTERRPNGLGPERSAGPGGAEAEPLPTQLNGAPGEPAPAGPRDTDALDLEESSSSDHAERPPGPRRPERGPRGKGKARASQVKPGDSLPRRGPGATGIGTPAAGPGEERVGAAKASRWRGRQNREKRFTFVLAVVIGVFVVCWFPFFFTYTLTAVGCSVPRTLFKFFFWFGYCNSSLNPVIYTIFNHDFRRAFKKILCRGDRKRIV
Chain of ADR - Alpha 2C (P18825 whole entry): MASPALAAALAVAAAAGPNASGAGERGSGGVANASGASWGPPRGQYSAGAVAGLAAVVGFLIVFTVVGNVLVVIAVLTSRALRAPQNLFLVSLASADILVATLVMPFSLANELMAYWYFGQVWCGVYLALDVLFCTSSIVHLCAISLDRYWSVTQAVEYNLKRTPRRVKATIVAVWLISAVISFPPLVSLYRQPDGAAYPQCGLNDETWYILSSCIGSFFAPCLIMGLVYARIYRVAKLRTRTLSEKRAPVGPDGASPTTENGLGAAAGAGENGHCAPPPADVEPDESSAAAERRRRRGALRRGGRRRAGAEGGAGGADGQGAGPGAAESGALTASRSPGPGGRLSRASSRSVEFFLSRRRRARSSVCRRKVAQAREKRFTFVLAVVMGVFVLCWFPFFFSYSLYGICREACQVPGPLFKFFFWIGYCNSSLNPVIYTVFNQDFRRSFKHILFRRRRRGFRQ
Chain of 5-HT6 (P50406 whole entry, species assumed): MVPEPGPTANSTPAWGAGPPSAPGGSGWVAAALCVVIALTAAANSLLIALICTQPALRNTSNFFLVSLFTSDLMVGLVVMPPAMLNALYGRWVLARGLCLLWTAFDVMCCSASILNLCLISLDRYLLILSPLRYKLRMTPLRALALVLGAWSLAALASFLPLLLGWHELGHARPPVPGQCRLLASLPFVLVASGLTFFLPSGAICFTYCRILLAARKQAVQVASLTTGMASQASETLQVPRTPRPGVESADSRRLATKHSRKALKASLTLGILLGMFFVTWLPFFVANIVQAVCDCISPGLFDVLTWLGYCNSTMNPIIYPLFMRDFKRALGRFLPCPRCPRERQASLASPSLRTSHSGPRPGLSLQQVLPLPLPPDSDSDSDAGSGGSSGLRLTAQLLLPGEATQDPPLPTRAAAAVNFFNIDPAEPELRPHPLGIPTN
Chain of 5-HT 1A (P08908 whole entry, species assumed): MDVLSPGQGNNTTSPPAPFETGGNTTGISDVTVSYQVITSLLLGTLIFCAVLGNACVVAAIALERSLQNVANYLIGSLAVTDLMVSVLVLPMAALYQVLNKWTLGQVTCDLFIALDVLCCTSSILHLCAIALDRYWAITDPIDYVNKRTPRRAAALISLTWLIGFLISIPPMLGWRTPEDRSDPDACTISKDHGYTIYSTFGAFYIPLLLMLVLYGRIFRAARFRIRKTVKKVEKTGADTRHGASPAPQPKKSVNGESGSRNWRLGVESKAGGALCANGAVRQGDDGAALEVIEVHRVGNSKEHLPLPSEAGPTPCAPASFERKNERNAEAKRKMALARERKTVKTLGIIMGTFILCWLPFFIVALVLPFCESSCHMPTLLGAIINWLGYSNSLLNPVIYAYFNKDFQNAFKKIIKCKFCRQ
Chain of ADR - Alpha 2B (P18089 whole entry): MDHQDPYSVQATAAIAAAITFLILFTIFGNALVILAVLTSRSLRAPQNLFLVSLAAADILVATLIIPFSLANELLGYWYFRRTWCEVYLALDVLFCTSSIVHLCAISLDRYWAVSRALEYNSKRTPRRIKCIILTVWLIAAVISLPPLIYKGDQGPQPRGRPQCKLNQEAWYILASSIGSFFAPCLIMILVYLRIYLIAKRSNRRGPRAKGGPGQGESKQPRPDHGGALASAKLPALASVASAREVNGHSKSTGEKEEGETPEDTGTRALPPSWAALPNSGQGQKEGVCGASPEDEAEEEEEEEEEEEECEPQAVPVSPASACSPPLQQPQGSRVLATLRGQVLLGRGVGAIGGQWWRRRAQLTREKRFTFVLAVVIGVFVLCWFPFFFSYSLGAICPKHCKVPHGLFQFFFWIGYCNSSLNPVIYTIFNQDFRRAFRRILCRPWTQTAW

COc1ccccc1OCCNC[C@H](O)COc1ccc(O)cc1.COc1ccccc1OCCNC[C@H](O)COc1ccc(O)cc1.O=C(O)/C=C/C(=O)O [STD-101-D1, (S)-4-(2-hydroxy-3-((2-(2-methoxyphenoxy)ethyl)amino)propoxy)phenol hemifumarate]
Ki [1]: 337 nM | Ki [2]: 47 nM | Ki [3]: 1170 nM | Ki [4]: 108 nM | Ki [5]: 1770 nM | Ki [6]: 149 nM | Ki [7]: 382 nM | concentration at 20 min ([8]; ip, 10 mg/kg intraperitoneally): 288 nM | concentration at 20 min ([8]; iv, 10 mg/kg intravenously): 2500 nM | compound remaining after 60 min, mouse liver microsomes [9]: 62.8% | Ki [10]: 11 nM | Ki [11]: 17 nM
